Key:
chronic stomach ulcer = assay: acetic acid-induced chronic stomach ulcer model (promoting the healing); format: in vivo, rats; conditions: for Ulcer index: ± S.E.M
Experimental: The investigation of (the effect promoting the healing of) the chronic stomach ulcer induced by acetic acid was carried out as follows. In the course of examining the healing-promoting effect, one of the most widely used methods namely, the so-called acetic acid-induced chronic stomach ulcer model was used [Takagi et. al.: Jap. […] The abdominal wall of anaesthetized rats was opened and 50 μl of a 20% acetic acid solution were injected into the stomach wall, then the abdominal wall of the animal was sutured. The treatment by the test compounds was started on day 5 following the surgical operation and continued until day 14 by using the daily doses shown in Table 2. Then, the animals were killed and their stomachs were examined. The extent of ulceration was assessed by measuring the diameter of the ulcer, wherefrom the size of the damaged area could be calculated. For characterizing the degree of the cicatrization, the change in the ulcer index measured in the treated animals was related to the values measured in the untreated (control) animals and expressed as percentage values.

[1] = system: glandular part of the stomach; assay: acid-ethanol test (cytoprotective action, method of A. Robert); format: in vivo, rats; conditions: oral; for ED50: Rattus norvegicus, acid-ethanol test, starved rats, read-out: Cytoprotective effect ED50
From the text: Starved rats were given absolute ethanol containing concentrated hydrochloric acid which induced longitudinal bleedings in the glandular part of the stomach within a short time. This damaging effect is prevented by cytoprotective substances.
The oral ED50 values of some compounds according to the invention, which were examined in the acid-ethanol test, are shown in Table 1.

oral toxicity = format: in vivo
[2] = 50 × 10 mg/kg/day p.o., Table 3
[3] = 10 × 10 mg/kg/day p.o., Table 2
[4] = 10 × 10 mg/kg/day p.o., P <0.01 vs control (C only)

In the case of `CC(=O)c1ccc2c(c1)C(=O)C1(CC1)O2` [Spizofuron, reference compound], the “Change in the ulcer index related to the control (promotion of the healing)” value (chronic stomach ulcer; [2]) is reported as 11%.
In the case of Sucralfate [reference compound], the “Change in the ulcer index related to the control (promotion of the healing)” value (chronic stomach ulcer; 500 × 10 mg/kg/day p.o., Table 3) is reported as 55%.
In the case of `NC[C@H]1CC[C@H](C(=O)Oc2ccc(CCC(=O)O)cc2)CC1` [Cetraxate, reference compound], the “Change in the ulcer index related to the control (promotion of the healing)” value (chronic stomach ulcer; 150 × 10 mg/kg/day p.o., Table 3) is reported as 49%.
For `C[S+](C)CCC(N)C(=O)O` (stereo not shown) [MMSC, Methylmethionine sulfonium chloride, reference compound], the “Change in the ulcer index related to the control (promotion of the healing)” value (chronic stomach ulcer; [2]) was 59%.
For `CCOC(=O)C[C@@H](NC(=O)/C=C/C(=O)c1ccccc1)C(=O)OCC` [C, diethyl N-[4-oxo-4-phenyl-2(E)-butenoyl]-(R)-aspartate], the ED50 [1] was 1.7 mg/kg, the “cytoprotective test, comparison in words” value ([1]; statement on Table 1) was “most effective” and the “healing of the ulcer accelerated” value (chronic stomach ulcer; 3 mg/kg oral dose, statement on Table 2) was 57%. The “Change in the ulcer index related to the control (delaying of the healing)” value (chronic stomach ulcer; 1 × 10 mg/kg/day p.o., Table 2) was 13%, the Ulcer index (chronic stomach ulcer; 1 × 10 mg/kg/day p.o.) was 13.1 ± 3.5 mm^2 /stomach and the “Change in the ulcer index related to the control (promotion of the healing)” value (chronic stomach ulcer; 3 × 10 mg/kg/day p.o., Table 2) was 57%. The Ulcer index (chronic stomach ulcer; 3 × 10 mg/kg/day p.o., P <0.01 vs control) was 5.0 ± 1.2 mm^2 /stomach, the “Change in the ulcer index related to the control (promotion of the healing)” value (chronic stomach ulcer; [3]) was 77% and the Ulcer index (chronic stomach ulcer; [4]) was 2.7 ± 1.1 mm^2 /stomach. For the same compound, the “healing-promoting effect compared with reference drugs” value (chronic stomach ulcer; R isomer vs reference drugs of Table 3) was “greatly exceeds that of the reference drugs”, the “difference between the healing-promoting effects of the R and RS modifications” value (chronic stomach ulcer; statement on Table 2) was “highly significant difference” and the “toxicity, oral dose of 1200 mg/kg” value (oral toxicity) was “not toxic”.
In the case of `CN1CCN(CC(=O)N2c3ccccc3C(=O)Nc3cccnc32)CC1` [Pirenzepine, reference compound], the “Change in the ulcer index related to the control (promotion of the healing)” value (chronic stomach ulcer; 12 × 10 mg/kg/day p.o., Table 3) is reported as 13%.
For `CCOC(=O)CC(NC(=O)/C=C/C(=O)c1ccccc1)C(=O)OCC` (racemic) [B, diethyl N-[4-oxo-4-phenyl-2(E)-butenoyl]-(RS)-aspartate], the ED50 [1] was 2.6 mg/kg, the “Change in the ulcer index related to the control (promotion of the healing)” value (chronic stomach ulcer; [3]) was 34% and the Ulcer index (chronic stomach ulcer; [4]) was 7.7 ± 2.8 mm^2 /stomach. The “Change in the ulcer index related to the control (promotion of the healing)” value (chronic stomach ulcer; 30 × 10 mg/kg/day p.o., Table 2) was 63%, the Ulcer index (chronic stomach ulcer; 30 × 10 mg/kg/day p.o., P <0.01 vs control (B)) was 4.2 ± 1.8 mm^2 /stomach and the “difference between the healing-promoting effects of the R and RS modifications” value (chronic stomach ulcer; statement on Table 2) was “highly significant difference”.
For `CCOC(=O)C[C@H](NC(=O)/C=C/C(=O)c1ccccc1)C(=O)OCC` [A, diethyl N-[4-oxo-4-phenyl-2(E)-butenoyl]-(S)-aspartate], the ED50 [1] was 3.8 mg/kg, the “healing of the ulcer, result in words” value (chronic stomach ulcer; 40 mg/kg oral dose, statement on Table 2) was “not promoted” and the “Change in the ulcer index related to the control (delaying of the healing)” value (chronic stomach ulcer; 40 × 10 mg/kg/day p.o., Table 2) was 11%. For the same compound, the Ulcer index (chronic stomach ulcer; 40 × 10 mg/kg/day p.o.) was 13.4 ± 2.1 mm^2 /stomach.
In the case of `CN/C(=N/CCSCc1nc[nH]c1C)NC#N` [Cimetidine, reference compound], the “Change in the ulcer index related to the control (promotion of the healing)” value (chronic stomach ulcer; [2]) is reported as 17%.
